Assay results taken from patent US20100119483A1, “PEPTIDE VIRAL ENTRY INHIBITORS” (Schering Corporation, priority 2004, published 2010).
“And” between values parts separate entries of the source, which are not always exact repeats. Equal values may be shown once.

Tests used:
[1] = test system: amphotropic murine leukemia virus; assay: AMLV pseudotyped virus entry counter-screen, same infection protocol; assay type: cell-based; conditions: peptide library screen; cell entry inhibition vs uninhibited control
Procedure, shortened: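 Huh7 hepatoma cells pre-incubated with peptide 1 h at 37 °C, then infected with AMLV pseudotyped virus and cultured 72 h at 37 °C, 5% CO2 before luciferase read-out. Peptides screened at 100 ug/ml, then 10-point 3-fold titrations from 100 ug/ml.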

HCVpp = assay: Wash off study, HCVpp entry under conditions A-D at 37° C. or 4° C.; assay type: cell-based, hepatitis C virus; conditions: for luciferase units: 37° C.; for luciferase units observed in the entry assay: 4° C., listed as V-2b
Method: To identify if the peptides of the invention bind to the cells and therefore inhibit entry, anti-CD81 antibody or peptide (SEQ ID NO: 77) was tested at four conditions: • (A) peptide or anti-CD81 antibody was pre-incubated with cells and virus separately, cells were washed and virus together with peptide was added; • (B) peptide or anti-CD81 antibody was pre-incubated with virus only first and then virus together with peptide was added to the cells; • (C) peptide or anti-CD81 antibody was preincubated with cells only and washed off, and then virus was added; and • (D) same as C except that virus was washed off after 1 hour of incubation.
The majority of difference seen before the 4-hour time-point is in line with the model wherein most of the entry events occur during the first four hours (data not shown). As expected, the RLU signal was reduced at earlier time points and lead to higher variation of the assay. […] In anticipating similar phenomena might exist with the peptide, we applied the one hour virus incubation in the following studies. In tables 19-22, condition D was identical to condition C except that virus was removed after 1 hour of incubation. […] Anti-CD81 antibody binds to CD81 expressed on the cells and therefore blocks HCVpp entry.
The data in tables 19 and 20 were generated in assays conducted at 37° C. The date generated in tables 21 and 22 were generated in assays conducted at 4° C. The numbers in each table (19-22) represent the luciferase units observed in the entry assay under each indicated condition.

[2] = peptide 0.0457 ug/ml, condition A
[3] = peptide 0.0457 ug/ml, condition B
[4] = peptide 0.0457 ug/ml, condition C
[5] = peptide 0.1372 ug/ml, condition A
[6] = peptide 0.1372 ug/ml, condition B
[7] = peptide 0.1372 ug/ml, condition C
[8] = peptide 0.4115 ug/ml, condition A
[9] = peptide 0.4115 ug/ml, condition B
[10] = peptide 0.4115 ug/ml, condition C
[11] = peptide 1.2346 ug/ml, condition A
[12] = peptide 1.2346 ug/ml, condition B
[13] = peptide 1.2346 ug/ml, condition C
[14] = peptide 3.7037 ug/ml, condition A
[15] = peptide 3.7037 ug/ml, condition B
[16] = peptide 3.7037 ug/ml, condition C
[17] = peptide 11.1111 ug/ml, condition A
[18] = peptide 11.1111 ug/ml, condition C
[19] = peptide 33.3333 ug/ml, condition A
[20] = peptide 33.3333 ug/ml, condition B
[21] = peptide 33.3333 ug/ml, condition C

V-S-F-A-I-K-W-E-Y-V-L-L-L-F-L-L [SEQ ID NO: 77]
AMLVpp % inh [1]: 3%
luciferase units (HCVpp; peptide 0.0046 ug/ml (two lines), condition A): 74772 luciferase units and 76125 luciferase units and 57485 luciferase units and 58523 luciferase units
luciferase units (HCVpp; peptide 0.0046 ug/ml (two lines), condition B): 65028 luciferase units and 60343 luciferase units and 57349 luciferase units and 51858 luciferase units
luciferase units (HCVpp; peptide 0.0046 ug/ml (two lines), condition C): 40529 luciferase units and 45271 luciferase units and 37116 luciferase units and 32831 luciferase units
luciferase units (HCVpp; [2]): 50460 luciferase units and 53231 luciferase units
luciferase units (HCVpp; [3]): 47929 luciferase units and 53377 luciferase units
luciferase units (HCVpp; [4]): 36956 luciferase units and 46680 luciferase units
luciferase units (HCVpp; peptide 0.0457 ug/ml, condition D): 3531 luciferase units and 2785 luciferase units
luciferase units (HCVpp; [5]): 44159 luciferase units and 41959 luciferase units
luciferase units (HCVpp; [6]): 43468 luciferase units and 36136 luciferase units
luciferase units (HCVpp; [7]): 34241 luciferase units and 44163 luciferase units
luciferase units (HCVpp; peptide 0.1372 ug/ml, condition D): 2443 luciferase units and 4834 luciferase units
luciferase units (HCVpp; [8]): 28106 luciferase units and 25559 luciferase units
luciferase units (HCVpp; [9]): 26979 luciferase units and 31819 luciferase units
luciferase units (HCVpp; [10]): 40225 luciferase units and 43467 luciferase units
luciferase units (HCVpp; peptide 0.4115 ug/ml, condition D): 3257 luciferase units and 2555 luciferase units
luciferase units (HCVpp; [11]): 21301 luciferase units and 21733 luciferase units
luciferase units (HCVpp; [12]): 25204 luciferase units and 14452 luciferase units
luciferase units (HCVpp; [13]): 36450 luciferase units and 40467 luciferase units
luciferase units (HCVpp; [14]): 15025 luciferase units and 10613 luciferase units
luciferase units (HCVpp; [15]): 15213 luciferase units and 12233 luciferase units
luciferase units (HCVpp; [16]): 31857 luciferase units and 32265 luciferase units
luciferase units (HCVpp; peptide 3.7037 ug/ml, condition D): 2974 luciferase units and 3707 luciferase units
luciferase units (HCVpp; [17]): 12402 luciferase units and 6768 luciferase units
luciferase units (HCVpp; peptide 11.1111 ug/ml, condition B): 10212 luciferase units and 6902 luciferase units
luciferase units (HCVpp; [18]): 28818 luciferase units and 33022 luciferase units
luciferase units (HCVpp; peptide 11.1111 ug/ml, condition D): 3302 luciferase units and 3259 luciferase units
luciferase units (HCVpp; [19]): 6467 luciferase units and 6356 luciferase units
luciferase units (HCVpp; [20]): 7146 luciferase units and 4501 luciferase units
luciferase units (HCVpp; [21]): 23383 luciferase units and 19309 luciferase units
luciferase units (HCVpp; peptide 33.3333 ug/ml, condition D): 2351 luciferase units and 2058 luciferase units
luciferase units (HCVpp; peptide 100.0000 ug/ml, condition A (pre-incubated with cells and virus separately, cells washed)): 9216 luciferase units and 7419 luciferase units
luciferase units (HCVpp; peptide 100.0000 ug/ml, condition B (pre-incubated with virus only)): 8074 luciferase units and 4093 luciferase units
luciferase units (HCVpp; peptide 100.0000 ug/ml, condition C (pre-incubated with cells only, washed off)): 19088 luciferase units and 14073 luciferase units
luciferase units (HCVpp; peptide 100.0000 ug/ml, condition D (as C, virus washed off after 1 hour)): 780 luciferase units and 1531 luciferase units
luciferase units observed in the entry assay (HCVpp; peptide 0.0046 ug/ml, condition A): 22435 luciferase units and 18765 luciferase units and 17613 luciferase units and 22306 luciferase units
luciferase units observed in the entry assay (HCVpp; peptide 0.0046 ug/ml, condition B): 26860 luciferase units and 23215 luciferase units and 23633 luciferase units and 21213 luciferase units
luciferase units observed in the entry assay (HCVpp; peptide 0.0046 ug/ml, condition C): 13903 luciferase units and 13795 luciferase units and 14095 luciferase units and 10535 luciferase units
luciferase units observed in the entry assay (HCVpp; [2]): 7498 luciferase units and 7299 luciferase units
luciferase units observed in the entry assay (HCVpp; [3]): 6703 luciferase units and 9954 luciferase units
luciferase units observed in the entry assay (HCVpp; [4]): 16101 luciferase units and 13757 luciferase units
luciferase units observed in the entry assay (HCVpp; [5]): 5745 luciferase units and 7826 luciferase units
luciferase units observed in the entry assay (HCVpp; [6]): 7670 luciferase units and 6880 luciferase units
luciferase units observed in the entry assay (HCVpp; [7]): 9444 luciferase units and 10124 luciferase units
luciferase units observed in the entry assay (HCVpp; [8]): 5517 luciferase units and 5574 luciferase units
luciferase units observed in the entry assay (HCVpp; [9]): 4724 luciferase units and 3648 luciferase units
luciferase units observed in the entry assay (HCVpp; [10]): 9027 luciferase units and 11381 luciferase units
luciferase units observed in the entry assay (HCVpp; [11]): 3584 luciferase units and 5974 luciferase units
luciferase units observed in the entry assay (HCVpp; [12]): 5542 luciferase units and 4382 luciferase units
luciferase units observed in the entry assay (HCVpp; [13]): 6131 luciferase units and 6853 luciferase units
luciferase units observed in the entry assay (HCVpp; [14]): 2824 luciferase units and 3255 luciferase units
luciferase units observed in the entry assay (HCVpp; [15]): 3059 luciferase units and 3424 luciferase units
luciferase units observed in the entry assay (HCVpp; [16]): 9414 luciferase units and 8570 luciferase units
luciferase units observed in the entry assay (HCVpp; [17]): 2833 luciferase units and 2954 luciferase units
luciferase units observed in the entry assay (HCVpp; [18]): 7352 luciferase units and 4725 luciferase units
luciferase units observed in the entry assay (HCVpp; [19]): 1677 luciferase units and 2383 luciferase units
luciferase units observed in the entry assay (HCVpp; [20]): 2900 luciferase units and 1914 luciferase units
luciferase units observed in the entry assay (HCVpp; [21]): 8294 luciferase units and 8104 luciferase units
luciferase units observed in the entry assay (HCVpp; peptide 100 ug/ml, condition A): 1924 luciferase units and 1845 luciferase units
luciferase units observed in the entry assay (HCVpp; peptide 100 ug/ml, condition C): 5118 luciferase units and 8821 luciferase units
inhibition compared to anti-CD81 antibody in the wash-off experiment (HCVpp; pre-incubated with cells at 37° C. and 4° C.): more inhibition
inhibition at condition C (HCVpp; pre-incubated with cells only and washed off, then virus added): little inhibition
